Reference: the supplement of paper PMC10307832

Assays:
Assay in all cases: relative viability (nuclei count vs DMSO), 5 days (fraction); higher = more cells survive
[1] = compound: Cc1ccc(NC(=O)c2ccc(CN3CCN(C)CC3)cc2)cc1Nc1nccc(-c2cccnc2)n1 [Imatinib] + CC(=O)Nc1cccc(-n2c(=O)n(C3CC3)c(=O)c3c(Nc4ccc(I)cc4F)n(C)c(=O)c(C)c32)c1 [Trametinib] (partner 0.02 µM)
In short: (§1)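 After 5 days of treatment, lung cancer cells in 1536-well plates were fixed and stained in a single step (final 0.05% Triton X-100, 1% formaldehyde, 1 ug/ml Hoechst) and their nuclei counted on 4× images. Treatment had been applied by pin tool the day after seeding as one drug alone or as a fixed anchor-drug dose with five library-drug doses (not always all listed) in √10 steps. Relative viability is the nuclei count of treated wells divided by that of vehicle wells, and values are medians of duplicate plates.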

[2] = compound: Cc1ccc(NC(=O)c2ccc(CN3CCN(C)CC3)cc2)cc1Nc1nccc(-c2cccnc2)n1 [Imatinib] + Cc1cc(Nc2cc(N3CCN(C)CC3)nc(Sc3ccc(NC(=O)C4CC4)cc3)n2)n[nH]1 [Tozasertib] (partner 0.1 µM)
In short: as §1

[3] = compound: Cc1ccc(NC(=O)c2ccc(CN3CCN(C)CC3)cc2)cc1Nc1nccc(-c2cccnc2)n1 [Imatinib] + N=C(N)NC(=N)NCCc1ccccc1 [Phenformin] (partner 250 µM)
In short: as §1

[4] = compound: Cc1ccc(NC(=O)c2ccc(CN3CCN(C)CC3)cc2)cc1Nc1nccc(-c2cccnc2)n1 [Imatinib] + NC(=O)Nc1cc(-c2cccc(F)c2)sc1C(=O)N[C@H]1CCCNC1 [AZD7762] (partner 0.2 µM)
In short: as §1

| Cell Line | relative viability ([1]; first compound 0.02 µM) | relative viability ([1]; first compound 0.2 µM) | relative viability ([1]; first compound 0.6325 µM) | relative viability ([1]; first compound 2 µM) | relative viability ([2]; first compound 0.02 µM) | relative viability ([2]; first compound 0.06325 µM) | relative viability ([2]; first compound 0.2 µM) | relative viability ([2]; first compound 0.6325 µM) | relative viability ([2]; first compound 2 µM) | relative viability ([3]; first compound 0.02 µM) | relative viability ([3]; first compound 0.06325 µM) | relative viability ([3]; first compound 0.2 µM) | relative viability ([3]; first compound 0.6325 µM) | relative viability ([3]; first compound 2 µM) | relative viability ([4]; first compound 0.02 µM) | relative viability ([4]; first compound 0.06325 µM) | relative viability ([4]; first compound 0.6325 µM) | relative viability ([4]; first compound 2 µM) | relative viability ([1]; first compound 0.06325 µM) | relative viability ([4]; first compound 0.2 µM) |
| --- | --- | --- | --- | --- | --- | --- | --- | --- | --- | --- | --- | --- | --- | --- | --- | --- | --- | --- | --- | --- |
| H3255 | 0.589 | 0.635 | 0.616 | 0.609 | 0.604 | 0.608 | 0.638 | 0.575 | 0.614 | 0.326 | 0.377 | 0.378 | 0.335 | 0.376 | 1.02 | 0.784 | 0.95 | 0.842 |  |  |
| EMC-BAC-2 | 0.887 | 0.904 | 1.07 | 0.853 | 0.297 | 0.296 | 0.33 | 0.283 | 0.277 | 0.572 | 0.632 | 0.555 | 0.467 | 0.46 | 1.21 | 1.3 | 1.21 | 1.11 | 1 | 1.19 |
| COR-L 105 | 0.44 | 0.452 | 0.433 | 0.419 | 0.365 | 0.364 | 0.359 | 0.317 | 0.311 | 0.51 | 0.632 | 0.453 | 0.497 | 0.373 |  |  |  |  | 0.495 |  |
| NCI-H2405 | 0.623 | 0.637 | 0.516 | 0.634 | 0.7 |  | 0.767 | 0.671 | 0.609 | 0.366 |  | 0.341 | 0.329 | 0.333 | 0.813 | 0.791 | 0.635 | 0.651 | 0.538 | 0.706 |
| NCI-H1648 | 0.422 | 0.459 | 0.301 | 0.478 | 0.542 | 0.349 | 0.426 |  | 0.443 |  |  |  |  |  | 0.723 | 0.732 | 0.642 | 0.526 | 0.364 | 0.686 |
| NCI-H1915 | 0.328 | 0.293 | 0.304 | 0.312 | 0.468 |  | 0.458 | 0.385 | 0.341 | 0.38 |  | 0.387 | 0.377 | 0.371 | 0.705 |  | 0.659 | 0.665 |  | 0.781 |
| SW 1573 | 0.614 | 0.619 | 0.618 | 0.631 | 0.174 | 0.231 | 0.202 | 0.131 | 0.175 | 0.325 | 0.365 | 0.361 | 0.352 | 0.335 |  |  |  |  | 0.565 |  |
| EKVX | 0.376 | 0.295 | 0.325 |  |  | 0.389 | 0.348 | 0.287 | 0.354 |  | 0.249 | 0.22 | 0.226 | 0.242 |  |  | 0.723 |  |  | 0.617 |
